Experimental data as given in patent US20170173106A1, “Polypeptide Fragments of 168A-T2 and Compositions Comprising Them for Use in Treating Cancer” (GENE SIGNAL INTERNATIONAL SA, priority 2014, published 2017).
Where two headings read alike, the source gives them in different places. Ends that are not written are not given here.

Legend:
endostatin = assay: Endostatin production by HUVECs (ELISA); assay type: cell-based, human; conditions: inhibitor of MMPs GM6001 alone; FIG. 16
Procedure: HUVECs were transfected with siRNA using transfecting agent GENJET according to the manufacturer's instructions. After 48 hrs of incubation, supernatants were collected, protein expression tested by western blots and endostatin quantified.
Endostatin levels were quantified by ELISAs on lysates of HUVECs incubated at rising concentrations of P3 or PCT for 48 hrs.
In order to evaluate the role of metalloproteinases (MMPs) in endostatin production, a polyvalent inhibitor of MMPs, GM6001 was used. The concentration of endostatin in supernatants is at 6.2 ng/mg of protein of the lysates/48 hrs. […] GM6001 inhibits endostatin production induced by P3. MMPs might then be implicated in endostatin production induced by P3.
HUVECs were incubated for 48 hrs in an EGM2-MV media with an anti-CD151 antibody (11G5a) or an irrelevant antibody (negative control unable to recognize any protein). Then endostatin levels were measured by ELISA in supernatants.
HUVECs cells were transfected with specific siRNA of CD151 and CD9. Protein expression was analyzed in western blots. In parallel, endostatin levels were measured by ELISA in supernatants. […] Levels of endostatin in supernatant of HUVECs cells transfected with siRNA were measured. […] On the contrary, levels of endostatin increased at 9.4 ng/mg of protein lysates/48 hrs in HUVECs depleted in CD151 (FIG. 18B). CD151 is thus involved in the production of endostatin.

Calu-6 cells = assay: Tumor volume in vivo, Calu-6 xenograft; design: species or system mice; conditions: CDDP alone 5 mg/kg i.p. every other day for 16 days
Procedure: All experiments were reviewed by Genopole's institutional animal care and use committee, and performed in accordance with institutional guidelines for animal care. Female BALB/c nu/nu mice (n=24) were used at 5-6 weeks of age. The animals were housed in laminar air-flow cabinets under pathogen-free conditions with a 14 hrs light/10 hrs dark schedule, and fed autoclaved standard chow and water ad libitum. Calu-6 cells (5×10^6 cells in 200 μl of serum-free RPMI) were subcutaneously injected into the right flank of mice. After engraftment (10 days), tumor volume (TV) was measured (Balsari et al, Eur J Cancer. 2004 May; 40(8):1275-81) and animals were randomized and separated into four groups of six animals each, to be treated by i.p. injection (200 μl per injection) every other day for 16 days (eight injections). Control mice (group 1) received the vehicle (0.9% saline). […] Pegylated peptide 4 (P4-PEG) was dissolved in vehicle at 1 mg/ml and injected at a dose of 10 mg/kg (group 3). In group 4, mice received both CDDP and P4-PEG. Tumor volume and body weight were measured every other day over the treatment period (16 days).

UMUC-3 cells = assay: Tumor growth test in vivo, UMUC-3 xenograft (no CD9P-1 expression); design: species or system mice; conditions: cisplatin 2.5 mg/kg i.p.; 13 days
Procedure: Tumor sizes were measured and tumor volume was calculated. Mice were weighted to detect symptoms of pain.
The effect of P3 was then tested on the tumor growth in an in vivo model of xenograft of UMUC-3.

NCI-H460 cells = conditions: 13 days; for average tumoral volume: Example 6, n=5
Procedure: (§3) Swiss nu/nu female mice aged 5-6 weeks were anesthetized with xylazine (12 mg/kg) and ketamine (80 mg/kg). Tumor cells (NCI-H460 or UMUC-3) were implanted sub-cutanously in the mice flanks. […] Tumor sizes were measured and tumor volume was calculated. Mice were weighted to detect symptoms of pain.
Evaluating the effect of the peptides on tumor growth in vivo was performed. Cancer cells NCI-H460 were injected by sub-cutaneous administration in the Swiss-nu/nu mice flanks (n=20). 10 days following inoculation of tumor cells, mice were randomized in 2 groups of 5 mice. Mice of different groups were treated as follow: mice of group 1 were treated with solvent (200 μL/injection/48 hrs); mice of group 2 were treated with P3 (200 μL of 1 mg/mL of P3 in the solvent/injection/48 hrs). All the treatments were performed by intraperitoneal injection for 13 successive days.
The inoculation of NCI-H460 cells (tumoral volume of 100 to 150 mm^3), mice (n=35) were randomized in 7 groups comprising 5 mice each. […] All the treatments were performed by intraperitoneal injection for 13 successive days.

CD151 [1] = target: T1, CD151 (Homo sapiens, UniProt P48509); assay: CD151 in lysates of NCI-H460 xenografts (Western blot); assay type: in vivo, mice; conditions: 10 mg/kg every other day for 13 days
T1 construct: from tissue; host or cells: homogenates of Matrigel implants with NCI-H460 cells, and NCI-H460 xenografts, from Swiss nu/nu mice
T1 sequence (P48509 1-253): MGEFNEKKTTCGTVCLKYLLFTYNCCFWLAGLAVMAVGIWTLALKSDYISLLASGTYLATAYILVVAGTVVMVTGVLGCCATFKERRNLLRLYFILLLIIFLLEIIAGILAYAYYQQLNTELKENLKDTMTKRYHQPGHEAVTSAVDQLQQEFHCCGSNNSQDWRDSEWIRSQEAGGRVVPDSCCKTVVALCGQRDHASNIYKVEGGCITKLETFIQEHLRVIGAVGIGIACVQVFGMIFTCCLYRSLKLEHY
Procedure: (§1) In lysates from xenografts NCI-H460 cells from mice treated for 13 days every other day by P3 or P4 (10 mg/kg), a decrease of CD151 level is observed respectively of 73% and 50% compared to mice treated with the solvent (FIGS. 12A and B). No change in CD9P-1 was observed (FIG. 12A).

[2] = mouse, in vivo
Procedure: as §3
In parallel, to investigate the toxic effect of peptides tested on mice, the mice weights were measured along the treatment.

HUVECs [3] = assay: Cellular proliferation test (MTT) on HUVECs; assay type: cell-based, human; conditions: 48 h
Procedure: Evaluation of cellular proliferation was performed using 4,5-diMethylThiazol-2-yl)-2,5 diphenylTetrazolium bromide (MTT) test. After 18 hrs of culture, the media was changed by EBM2 supplemented with gentamycine and 5% SVF. Different concentrations of peptides were added under a volume of 10 μL/well. Cells were incubated for 48 hrs at 37° C. MTT was added (50 μL/well) to the cells for 3 hrs.
Cells were grown for 48 h in EGM2-MV and proliferation was quantified by MTT assay.

CD9P-1 [4] = assay: CD9P-1 in homogenates of Matrigel implants enriched with NCI-H460 (Western blot); assay type: in vivo, mice; conditions: 10 mg/kg for 12 days
Procedure: (§2) Analysis of the expression of CD151 and CD9P-1 were performed on western blots on homogenates of implants of Matrigel® enriched with NCI-H460. CD151 profile is characterized by 2 bands on western blots; one at 28 kDa corresponds to CD151 and another one at 26 kDa corresponding to a degraded product of CD151.

CD151 [5] = assay: CD151 in homogenates of Matrigel implants enriched with NCI-H460 (Western blot); assay type: in vivo, mice; conditions: 10 mg/kg for 12 days
Procedure: as §2

[6] = test system: Matrigel® implants enriched in NCI-H460 cells; assay: Angiogenesis test in vivo (Matrigel implants, hemoglobin); design: species or system mice; conditions: 10 mg/kg intraperitoneal daily for 12 days; for color of implants: implants collected day 13
Procedure: Implants of Matrigel® represent an in vivo model of angiogenesis. NCI-H460 cells are used to provide growth factors necessary for blood vessels formation within the Matrigel® matrix. The mixture was then injected sub-cutanously in the Swiis nu/nu mice. Daily treatments with the peptides (1 mg/mL) were performed by injections intraperitoneally. Implants were collected after 12 days.
The dosage of hemoglobin in implants was used as an indicator of the vessels of the implant. The implants were weighted and crushed.
An in vivo model of angiogenesis as described in Passaniti et al. (1992 Experimental gerontology 27, 559-566) was utilized to evaluate the effect of P3 and P4. Briefly, cancer cells were incorporated into Matrigel®, cancer cells provide growth and angiogenic factors necessary for blood vessel formation. The mixture was injected immediately under a sub-cutaneous form of the mice flanks. The day following the inoculation, 20 mice (Swiss nu-nu) were randomized in 4 groups containing 5 mice each and the treatments started as follows: mice of group 1 were treated by 200 μL/injection/day of solvent alone for 12 successive days; mice of group 2 were treated by 200 μL/injection of a P1 solution (1 mg/mL) in a solvent/injection/day for 12 successive days; mice of group 3 were treated by 200 μL of a P3 solution (1 mg/mL) in a solvent/injection/day for 12 successive days; mice of group 4 were treated by 200 μL of a P4 solution (1 mg/mL) in a solvent/injection/day for 12 successive days.

CD9P-1 [7] = target: T2, CD9P-1 (Homo sapiens, UniProt Q9P2B2); assay: CD9P-1 in lysates of NCI-H460 xenografts (Western blot); assay type: in vivo, mice; conditions: 10 mg/kg every other day for 13 days
T2 construct: from tissue; host or cells: homogenates of Matrigel implants with NCI-H460 cells, and NCI-H460 xenografts, from Swiss nu/nu mice
T2 sequence (Q9P2B2 26-879): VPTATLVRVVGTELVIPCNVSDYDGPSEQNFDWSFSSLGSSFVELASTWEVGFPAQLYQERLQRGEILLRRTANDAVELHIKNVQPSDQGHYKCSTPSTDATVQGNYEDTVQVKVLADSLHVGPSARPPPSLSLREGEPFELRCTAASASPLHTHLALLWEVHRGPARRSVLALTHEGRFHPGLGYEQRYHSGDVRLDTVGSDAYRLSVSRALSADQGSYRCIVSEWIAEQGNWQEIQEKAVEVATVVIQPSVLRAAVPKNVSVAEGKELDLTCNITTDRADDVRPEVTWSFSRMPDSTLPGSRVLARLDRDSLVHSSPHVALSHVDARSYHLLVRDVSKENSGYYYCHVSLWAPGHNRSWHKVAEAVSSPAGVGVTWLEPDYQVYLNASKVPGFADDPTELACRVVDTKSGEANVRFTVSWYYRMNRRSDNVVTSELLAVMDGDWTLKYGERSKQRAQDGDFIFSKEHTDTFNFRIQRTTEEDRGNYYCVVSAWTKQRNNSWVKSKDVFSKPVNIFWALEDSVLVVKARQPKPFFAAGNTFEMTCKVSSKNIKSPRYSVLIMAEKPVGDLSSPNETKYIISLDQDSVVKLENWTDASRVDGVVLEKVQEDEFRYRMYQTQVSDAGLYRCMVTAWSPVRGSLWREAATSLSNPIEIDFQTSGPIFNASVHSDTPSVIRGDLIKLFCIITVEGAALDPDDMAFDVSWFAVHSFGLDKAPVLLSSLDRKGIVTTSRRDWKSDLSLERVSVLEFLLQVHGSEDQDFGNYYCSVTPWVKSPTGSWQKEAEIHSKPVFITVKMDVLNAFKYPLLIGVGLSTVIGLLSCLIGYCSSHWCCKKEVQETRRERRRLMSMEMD
Procedure: as §1

HUVECs [8] = assay: Capillaries formation by HUVECs on Matrigel; assay type: cell-based, human; conditions: 6.5 μM, 13 μM and 33 μM, 18 h
Procedure: Evaluating the formation of capillaries on Matrigel® was performed by angiogenesis test in vitro described in Grant et al (1989 Cell 58, 933-943). Matrigel® was dropped down the wells of the 96 well plates and maintained for 30 min at 37° C. for the Matrigel® solidification. HUVECs cells were then seeded and 50 μL, of peptide added.
Plates were then incubated for 18 hrs at 37° C. cells were then washed with calcein solution (50 μL/well at 8 μM) and incubated for 20 min. HUVECs alive metabolize calcein in a green fluorescent component.
Peptides were added to the culture medium (EGM2-MV) at concentrations 6.5 μM, 13 μM and 33 μM after inoculation of cells. Plates were incubated at 37° C. for 18 h. Fluorescence labeling was achieved by addition of calcein. Pictures were shot with a fluorescence microscope equipped with a camera (zoom ×40).

endothelial cells = conditions: results disclosed in WO 2008/138894; cited from earlier work

CNC(=O)[C@H](Cc1c[nH]c2ccccc12)NC(=O)[C@@H](CC(=O)NO)CC(C)C [GM6001]
concentration of endostatin in supernatants (endostatin): 4.4 ng/mg of protein of the lysates/48 hrs | decrease of endostatin compared to the control (endostatin): about 30%

N.N.[Cl][Pt][Cl] [cisplatin, Cis-diammine platinum II dichloride]
tumor volume (Calu-6 cells): significant decrease in tumor volume | tumors under treatment (UMUC-3 cells): reduced | average tumoral volume (NCI-H460 cells; cisplatin 2.5 mg/kg i.p.): 1017±119.8 mm^3 | average tumoral volume (NCI-H460 cells; cisplatin alone 5 mg/kg i.p.): 626±118.5 mm^3

GNYYCSVTPWVKS [P3]
decrease of CD151 level compared to mice treated with the solvent (CD151 [1]): 73% | inhibition of the tumor growth in vivo (NCI-H460 cells; Example 5, P3 200 μL of 1 mg/mL /injection/48 hrs i.p.): 64.79±4.37% | Weight difference between day 1 and day 13 [2]: 10.2 ± 9% | Weighted average of mice after 13 days of the treatment [2]: 24.6 ± 0.4 | Weight difference between day 1 and day 13 ([2]; 10 mg/kg): 6 ± 2% | Weighted average of mice after 13 days of the treatment ([2]; 10 mg/kg): 26.2 ± 2.9 | inhibition of HUVECs proliferation (HUVECs [3]; 66 μM, n=3): 50%±1.2%

IHSKPVFITVKMDVLNA [P4]
CD9P-1 level (CD9P-1 [4]): does not change | decrease of the band corresponding to CD151 (28 kDa, normalized to GAPDH, vs solvent) (CD151 [5]): 51% | inhibition of hemoglobin amount in implants compared to group 1 (solvent) [6]: 29.2±8.4% | color of implants [6]: yellow color with some red points | change in CD9P-1 (CD9P-1 [7]): No change | capillary tubes formation (capillaries length and junctions number) (HUVECs [8]): significant decrease of both capillaries length and junctions number

VSWFAVHSFGLDKAPVLLSS (Peptide 1) [P1]
color of implants [6]: red color | effect on HUVECs proliferation (HUVECs [3]): No effect

B1: 168A-T2: fragment of the extracellular domain of protein 168A (CD9P-1) (protein)
chain: MAFDVSWFAVHSFGLDKAPVLLSSLDRKGIVTTSRRDWKSDLSLERVSVLEFLLQVHGSEDQDFGNYYCSVTPWVKSPTGSWQKEAEIHSKPVFITVKMDVLNAFKYP
modifications: peptide 168A-T2
potency relative to the anti-VEGF mAb and/or VEGF receptor (KDR)-based identified peptides (endothelial cells): at least 600 fold
